{
  "source": "patent US12031173B2",
  "about": "“Methods of producing polyol lipids” (THE REGENTS OF THE UNIVERSITY OF CALIFORNIA, priority 2016, dated 2024)",
  "experiment": "Surface tension of aqueous PEFA solutions, Wilhelmy plate method",
  "format": "physicochemical",
  "conditions": "aqueous solution",
  "procedure": "Surface Tension: Surface tensions were measured, using Wilhelmy plate method (Digital Tensiometer K10ST, KRÜSS) for different concentrations of PEFA in aqueous solution. The stabilization time was from 30 minutes in higher concentration to as long as 2 hours in lower concentration (below 2.5 mg/L). The final data was recorded when the measured surface tension became stable.",
  "data": [
    {"smiles": "CC(=O)OC[C@H]1O[C@H]2O[C@@H](C)CCCCCC/C=C\\CCCCCCCC(=O)O[C@H]3[C@H](O)[C@@H](O)[C@H](O[C@@H]2[C@@H](O)[C@@H]1O)O[C@@H]3COC(C)=O", "note": "[Sophorolipid, 1′,4″-Sophorolactone 6′,6″-diacetate]", "values": [
      {"measurement": "Average area occupied by each molecule", "value": 54.7, "unit": "Å^2/molecule"},
      {"measurement": "Surface excess concentration", "value": "2.93 × 10^−6 mol/m^2"},
      {"measurement": "Critical Micelle Concentration", "setting": "Wilhelmy plate", "value": 15.2, "unit": "mg/L"},
      {"measurement": "Minimum surface tension", "setting": "Wilhelmy plate", "value": 36.8, "unit": "mN/m"},
      {"measurement": "Slope of linear part for surface tension line", "setting": "Wilhelmy plate", "value": "−11.14", "unit": "mN/m"}
    ]}
  ]
}
